Measurements reported in patent US9453837B2, “Grafted dinuclear metal complexes, and use thereof as cellular microparticle sensors” (CENTRE NATIONAL DE LA RECHERCHE SCIENTIFIQUE (CNRS), priority 2011, dated 2016).

Tested on: microparticles derived from the activation of the cell culture of HMEC1 human microvascular endothelial cells by TNF-α
Experiment: Colorimetric assay of cellular microparticles by immobilisation of the complex on a microtiter plate (sensitivity study)
Type: binding
Settings: complex immobilised on polyglutaraldehyde-activated PVC plate; anti-CD105 antibody, peroxidase secondary antibody, ABTS; FIG. 1
Procedure: a) Reagents: • Glutaraldehyde 25% • Ethanolamine 16.5 M • Bicarbonate buffer (Na Bic), at pH 9.5, 1 M, to be made only by titration of a solution of NaH2CO3 (pH 8.3) with a solution of Na2CO3 at pH 11, 6. • HEPES buffer, 10 mM pH 7.4; 0.15 M NaCl • (hBPMP/Zinc)-C6H2, 150 μM
b) Protocols: • Polymerisation of glutaraldehyde: • 50 ml of a solution of 2.5% glutaraldehyde is prepared in 0.1 M Na Bic, then the mixture is placed in a sealed vial at 37° C. for 2 hours. • Adsorption of polyglutaraldehyde on the surface of polyvinyl chloride: • A microtiter plate with 96 wells is used. • 100 μL of 2.5% glutaraldehyde is deposited in each well and left for 2 hours at 22° C. The polyglutaraldehyde is removed and the surface is rinsed 3 times with water. • Immobilisation of the complex [(Zn2)(BPMP-C6H2)(μ-OH)].(ClO4)2 • The complex in 0.1 M HEPES, pH 8.2 is immobilised on the surface of the polyvinyl chloride plate for 24 hours at +22° C.: • The free aldehyde groups are saturated with 0.3 M ethanolamine by incubating the surface with this solution for 2 hours at 22° C., then the ethanolamine is eliminated by washing with water and then washing 3 times in 10 mM HEPES at pH 7.4, 0.15 M NaCl. […]
The reading is performed by means of a spectrophotometer. […]

[μ-[6-amino-N-(3,5-bis((bis(2-pyridylmethyl)amino)methyl)-4-hydroxybenzyl)hexanamide]]-μ-hydroxo, dizinc, diperchlorate [Example 4]
signal (initial velocity Vi of peroxidase substrate degradation) based on the quantity of microparticles: specific dose-response
